System: trained expert panelists
Test: Sensory formulation study ballot: taste attributes rated on 0-15 scales by trained expert panelists
Format: in vivo, human
Details: 0-15 scale, rating defined for panel calibration
Excerpt: Tongue numbing can also manifest itself as “tongue tingling”. These non-sugar-like characteristics appear inter-related in the sense that formulation as well as temperature changes affect the perception of several of them. Another taste characteristic of steviol glycosides, particularly those with relatively low levels of REB A, is soapiness, a characteristic that results from the surfactant portion of the molecule. To quantify all of these sensory effects by existing methods would require an expert sensory panel and at least 4 different sensory tests (i.e., C/R Function Determination, Flavor Profile Analysis, Temporal Profile Analysis and Adaptation Profile Analysis). However, to address a need for rapid screening of HP sweetener formulations, Prakash et al., described a scaling technique to quantify all of these sensory percepts in a single test (reference shown below under the table). An improvement of this methodology is described below.
Prior to the evaluation of test samples, all panelists must first calibrate themselves on Sucrose and Reference Samples (e.g., REB A) to ensure that they are able to appropriately scale taste attributes of interest. These Reference Samples are to be available in ample quantities for all experimental sessions. The Sucrose Reference is 10.0% sucrose acidified with 0.1% citric acid. For illustration purposes, an example of a Reference Sample can be a REB A Reference Sample that has 500 PPM REB A in the same system for general formula optimization studies.
Take a ca. 15 mL sample of the Sucrose Reference into the mouth swishing it around vigorously and note all attributes of the sensory experience. After ca. 10 sec, expectorate the sample and immediately rinse vigorously with ca. 15 mL of water, expectorating the rinse water. Over the next 2 minutes, while minimizing tongue movement in the mouth, pay attention to any rebound or intensification in perceived sweetness, bitterness, or numbing/tingling sensation. The intensity of the attribute perceived at 2 minutes is an estimate of its lingering tendency. Upon completion of calibration with the Sucrose Reference, calibration with the REB A Reference is carried out in the same way. The attribute ratings for the Sucrose and REB A References, all on 0-15 scales, are defined as follows: […]
After completion of reference sample calibrations, as well as in follow up of all sample tests, rinse the mouth vigorously with ca. 15 mL portions of the Sucrose Reference solution and two ca. 15 mL portions of water in effort to get the sensory system back to baseline.
After calibration with the Sucrose Reference and REB A Reference, evaluate all experimental samples by the same protocol, always using the Sucrose Reference and water rinse procedure and ensuring adequate time for the sensory system to return to normal before proceeding with subsequent samples
Taste procedure: the beverages were evaluated in triplicate using the sensory methodology described herein by four trained expert panelists and mean values were used for data analysis.

[1] = 2 minutes after expectoration and rinse, 10.0% sucrose or 500 PPM REB A in 0.1% citric acid
[2] = Sucrose Reference 10.0% sucrose, REB A Reference 500 PPM, both in 0.1% citric acid

Structure (SMILES): C=C1C[C@@]23CC[C@H]4[C@@](C)(CCC[C@@]4(C)C(=O)O[C@@H]4O[C@H](CO)[C@@H](O)[C@H](O)[C@H]4O)[C@@H]2CC[C@]1(O[C@@H]1O[C@H](CO)[C@@H](O)[C@H](O[C@@H]2O[C@H](CO)[C@@H](O)[C@H](O)[C@H]2O)[C@H]1O[C@@H]1O[C@H](CO)[C@@H](O)[C@H](O)[C@H]1O)C3 [REB A100 Reference, rebaudioside A]
- Bitterness Intensity @ 2 Min (Bitter2) [1]: 2
- Numbing/Tingling Sensation @ 2 Min (Numb/Ting2) [1]: 2
- Sweetness Intensity @ 2 Min (Sweet2) [1]: 3
- Astringency Intensity (Astring) [2]: 0
- Bitterness Intensity (IB) [2]: 3
- Mouthfeel (Mfeel) [2]: 0
- Numbing/Tingling Sensation (Numb/Ting) [2]: 0
- Soapiness (Soap) [2]: 1
- Sweetness Intensity Initial (Sweetness) [2]: 10
- Sweetness Onset/Appearance Time (Onset) [2]: 3

— patent US20160235102A1, “SWEETENER COMPOSITION, SWEETENER PRODUCTS, AND METHODS OF SWEETENING” (ALMENDRA AMERICAS, LLC, priority 2013, published 2016)
